# Results from PMC11079029, “Intramolecular autoinhibition regulates the selectivity of PRPF40A tandem WW domains for proline-rich motifs” (Nature Communications, 2024).
# Where two headings read alike, the source gives them in different places.
# How the values were obtained:
# [1] = test system: GFP-tagged PRPF40A-Nter-MUT; experiment: SILAC GFP-immunoprecipitation with quantitative mass spectrometry, mutant construct; format: binding, human (Hela cells); conditions: quantitative MS, Hela cells, protein by gene name
# Method: The PRPF40A N-terminal region (isoform 2, residues 1-221) was PCR-amplified from RPE1 cDNA (ATCC, Cat# CRL-4000) cDNA. The sequence was amplified in two fragments and both fragments were combined by overhang. All PCRs were carried out using Q5 Polymerase (NEB) according to manufacturer’s protocol. The resulting PRPF40A N-terminal region was cloned into a GFP-expressing pcDNA5 vector (see pcDNA5 GFP vector in ref. [28]) using Q5 Site-Directed Mutagenesis Kit (NEB). Nter-MUT, containing the PPVP/PALPP motifs changed to AAAA/AAAAA, was obtained by mutating the N-ter-WW12-containing plasmid with Q5 site-directed mutagenesis. Plasmids were transformed into DH5alpha chemically competent cells. After culturing, DNA isolation was performed with either ZymoPURE Plasmid Miniprep Kit (Zymo Research) or QIAGEN Plasmid Plus Midi Kit (Qiagen). The sequence was confirmed by Sanger Sequencing (GATC Eurofins). All used oligonucleotides are shown in Supplementary Table 6.
# Hela cells (ATCC, Cat# CCL-2, RRID:CVCL_0030) were cultured in DMEM SILAC medium (Thermo Fisher) supplemented with 10% filtered FBS (Sigma-Aldrich) and 1% penicillin-streptomycin (Thermo-Fisher). The SILAC medium contains either light (Arg0, Lys0), medium (Arg6, Lys4) or heavy (Arg10, Lys8) isotopes (Cambridge Isotopes Laboratories). Hela cells were cultivated for 14 days in SILAC medium to assure sufficient isotope incorporation. For transfection, 7 × 10^6 Hela cells were seeded in a 15 cm culture dish in 20 ml of respective SILAC medium and grown for 24 h. The cells were then transfected with 20 µg of plasmids expressing either GFP (Control), GFP-tagged N-ext-WW12 or GFP-tagged-N-ext-WW12-MUT utilizing 64 µl FuGENE (Promega) (ratio 1:3.2), according to manufacturer’s protocol.
# 24 h post-transfection, cells were washed twice in ice-cold PBS and harvested in 1 ml mRIPA buffer (50 mM Tris, 150 mM NaCl, 1 mM EDTA, 1% NP-40, 0.1% Na-deoxycholate), supplemented with 2 µl Turbo-DNase (Thermo Fisher) and 3 µl protease-inhibitor cocktail cOmplete (Sigma-Aldrich). Cell lysates were cleared by centrifugation at 16,000 × g, 4 °C, 15 min and concentration was measured using Pierce BCA Protein Assay kit (Thermo Scientific). The expressed constructs were pulled down by incubating 2.5 mg of lysate with 20 μl GFP-nanobody agarose beads (ChromoTek, GTA-20) for 1 h at 4 °C under constant agitation. Subsequently, beads were washed three times with mRIPA buffer without supplements, then eluted in 1X NuPAGE LDS sample buffer (Thermo Scientific). To detach the proteins from the beads, the eluate was heated to 70 °C for 10 min To evaluate the success of the immunoprecipitation, input (1%) and IP samples were analyzed on a NuPAGE 4–12% Bis-Tris-Acrylamide gel (Thermo Fisher) using NuPAGE MOPS SDS running buffer (Thermo Fisher). Proteins were stained using Sypro Ruby protein gel stain (Thermo Fisher) according to manufacturer’s protocol.
# The eluted proteins of three SILAC states (light, medium, heavy) were combined. The proteins were then reduced in DTT, alkylated in iodoacetamide, and purified using the SP3 paramagnetic bead approach. This was followed by overnight enzymatic digestion using trypsin (1 µg per sample) in 50 mM ammonium bicarbonate at 37 °C. The peptide solution was then purified by solid phase extraction in C18 StageTips[99].
# Peptides were separated by online reverse phase liquid chromatography using the EASY-nLC 1000 system (Thermo Scientific) in a 30-cm analytical column (inner diameter: 75 μm; heated at 50 °C) packed in-house with ReproSil-Pur 120 C18-AQ 1.9-μm beads (Dr. Maisch GmbH). The gradient separation was performed through a 105-min non-linear gradient of 1.6–32% acetonitrile with 0.1% formic acid at a nanoflow rate of 225 nl/min. The eluted peptides were sprayed directly by electrospray ionization into a Q Exactive Plus Orbitrap mass spectrometer (Thermo Scientific). […]
# [2] = biological target: T1, PRPF40A WW12 (tandem WW domains, residues 141–236) (Homo sapiens, UniProt O75400); experiment: ITC of PRPF40A WW12 with GB1-tagged proline-rich peptides and constructs; format: binding; conditions: for Kd: ITC
# T1 construct: WW12 141–236, WW12long 141–248, and N-ext-WW12 56–236; 6xHis-TEV site (N, cleaved yes); made in house; host or cells: Escherichia coli BL21(DE3)
# Text: PRPF40A isoform 1 sequences (N-ter 1–310, WW12short 141–223, WW12 141–236, WW12long 141–248, and N-ext-WW12 56–236) were amplified from a purchased DNA fragment (IDT) and cloned using NcoI and KpnI restriction sites into a pETM11 vector encoding 6xHis and TEV cleavage site as a N-terminal tag. SF1 (Pro A 410–468, Pro B 468–539, Pro C 539–594, Pro D 594–639, Pro BC 468–594, Pro CD 539–639, Pro BCD 468–639 and Pro ABCD 410–639) and SF3A1 (Middle Pro 364–413 and C-ter Pro 552–683) constructs were prepared in a similar manner using a pET24 vector with a 6xHis, GB1 and TEV cleavage site as N-terminal fusion cassette. 16-mer SF1 constructs (Table 1) and polyproline peptides (P6, P8, P10, P13, P16, P19, P22, P25, and P29) were cloned in the same pET24 vector with GB1 tag by direct ligation of purchased oligonucleotides (Eurofins). All peptide sequences contained N and C-terminal common residues to avoid boundary effects on binding: TEVsite-GAMSGS-peptide-SGSN. Mutants of PRPF40A WW12 and N-ext-WW12 constructs were prepared by site-directed mutagenesis. The truncated version of PRPF40A WW12 (141-217) was a gift from Dr. María Macías (IRB, Spain). All used oligonucleotides were purchased from Eurofins Genomics and are shown in Supplementary Table 6.
# Resuspended cell pellets in 20 mM Tris pH 8.0, 500 mM NaCl, 10 mM imidazole, 0.5 mM TCEP, and protease inhibitors mix (SERVA) were lysed by cell disruption in a French press. Clear lysates, after centrifugation (at 18,000 g) and filtering, were loaded into Ni-NTA resin. The resin was then washed with 20 mM imidazole containing buffer, and the desired protein was eluted with 500 mM imidazole. PRPF40A constructs were then subjected to TEV protease treatment (homemade at a final concentration of ≈50 μg/ml), dialyzed overnight at 4 °C against an imidazole-free buffer, and then loaded again to Ni-NTA resin; desired digested proteins were obtained in the flow-through and wash fractions while uncleaved protein, TEV protease, and impurities remained bound to the resin. Cleaved PRPF40A proteins and GB1-tagged SF1, SF3A1, and polyproline constructs were further purified by size-exclusion chromatography on a HiLoad 16/60 Superdex 75 column (GE Healthcare) equilibrated with 20 mM sodium phosphate, pH 6.5, 100 mM NaCl and 1 mM DTT buffer. For the purification of PRPF40A WW12 in complex with SF1 peptide, cell pellets of recombinant expression for both proteins were mixed and processed together following the Ni-NTA—TEV digestion—reverse Ni-NTA—SEC-75 protocol; where the complex remained bound in a 1:1 stoichiometry throughout the whole purification (corroborated by NMR). Molecular weight of each sample was confirmed by mass spectrometry, purity was checked by PAGE-SDS, and protein concentrations were determined from the aromatic contribution to the UV absorbance spectra at 280 nm.
# Experiments were conducted on a MicroCAl PEAQ-ITC (Malvern Instruments, UK) at 25 °C in 20 mM sodium phosphate pH 6.5 and 100 mM NaCl. PRPF40A was titrated into N-terminal GB1 tagged SF1 or polyproline constructs and vice versa with similar results. Protein concentrations in the cell were around 20–40 μM, while in the syringe ranged between 200 and 500 μM. Experiments were performed at least in duplicate with injections of 1.5 μL (0.4 μL for first point) separated by 150 s delays to recover thermal power baseline and continuous stirring in the cell (750 rpm) for correct mixing. The reference cell was filled with water in all experiments. Data were processed by removing the blank experiment (using digested GB1 fusion protein) and adjusted to one-site binding model with Malvern PEAQ-ITC Analysis software (Malvern Instruments, UK).
# PRPF40A N-ext-WW12 = experiment: NMR titration (1H-15N and 1H-13C HSQC) of N-ext-WW12 with SF1 peptides; format: binding, human; conditions: NMR titration of N-ext-WW12, ratios 1:1 up to 1:4
# Method: NMR samples were prepared at concentrations ranging 100–1000 μM in buffer containing 20 mM sodium phosphate pH 6.5, 100 mM NaCl, 1 mM DTT, and 10% or 100% D2O, and measured at 25 °C (except stated otherwise) in 900-, 800-, 600- and 500-MHz Bruker Avance III NMR spectrometers equipped with cryogenic triple resonance gradient probes. Topspin 4.1.0 (Bruker) software was used for NMR data acquisition. Spectra were processed with NMRpipe 8.9[76] and analyzed using ccpnNMR Analysis 2.5 software.
# ^15N-labeled PRPF40A proteins (WW1, WW2, WW12, and N-extWW12) at around 100 μM concentration were titrated with increasing concentration ratios of polyproline or SF1 peptides (GB1 tagged) until reaching saturation, when possible; ^1H-^15N HSQC experiments and in some cases ^1H-^13C HSQC experiments (using double-labeled PRPF40A proteins) were acquired at each titration point. The chemical shift perturbation (CSP) was weighted using the Eqs. (1) and (2)[89].1 CSP(HN)=0.5⋅ΔδH2+0.14⋅ΔδN2 2 CSP(HC)=0.5⋅ΔδH2+0.3⋅ΔδC2
# T1 sequence (O75400 141-236): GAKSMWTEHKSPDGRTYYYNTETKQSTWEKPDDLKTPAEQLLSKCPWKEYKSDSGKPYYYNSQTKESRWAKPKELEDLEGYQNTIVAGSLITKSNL
Substance,"Immunoprecipitation enrichment MUT vs WT, log2 FC [1]",also measured
CCNT1;CCNT2,1.3354,
CDK9,1.401,
CDK12,1.215,
EFTUD2,1.181,
INF2,1.013,
MPPPPMGMMPPPPPPP [SF1_470–485],,"N (sites) ([2]; ITC as E1, peptide in the cell, WW tandem in the syringe, N >1 = more than one WW tandem per peptide): 0.90 ± 0.16 sites; DH ([2]; ITC binding enthalpy, as E1): -13.6 ± 0.813 kcal/mol; Kd ([2]; 25 °C, 20 mM sodium phosphate pH 6.5, 100 mM NaCl, GB1-tagged polyproline or SF1 16-mer peptide in the cell, WW tandem in the syringe, one-site model, apparent Kd, average of at least duplicates, read-out: Kd): 13.9 ± 2.3 µM; Kd ([2]; SF1 peptides, individual value 1 (replicate 1), read-out: Kd Values with WW12, individual value): 10.9 µM; Kd ([2]; SF1 peptides, individual value 2 (replicate 2), read-out: Kd Values with WW12, individual value): 13.3 µM; Kd ([2]; SF1 peptides, individual value 3 (replicate 3), read-out: Kd Values with WW12, individual value): 14 µM; Kd ([2]; SF1 peptides, individual value 4 (replicate 4), read-out: Kd Values with WW12, individual value): 17.3 µM; displacement of the intramolecular N-terminal motifs (methyl signals Val 80, Val 129) (PRPF40A N-ext-WW12): cannot fully displace the intramolecular motifs"
SAE1,1.104,
SNRNP200,1.2097,
WIZ,1.529,
